This is an account of results in US20240409585A1, “MACROCYCLIC IMMUNOMODULATORS” (priority 2021, published 2024).

Bridge positions count the residues as written; N and C are the ends. Square brackets hold non-standard residues; d marks the D form. Peptide text beside a SMILES is read from it. * marks the point of attachment. Phe(4-COOH) = N[C@@H](Cc1ccc(C(=O)O)cc1)C(=O)O; Bip = N[C@@H](Cc1ccc(-c2ccccc2)cc1)C(=O)O; Phe(3-Cl) = N[C@@H](Cc1cccc(Cl)c1)C(=O)O; Phe(3-OMe) = COc1cccc(C[C@H](N)C(=O)O)c1; Phe(3-Me) = Cc1cccc(C[C@H](N)C(=O)O)c1; Val(3-OH) = CC(C)(O)[C@H](N)C(=O)O; 4Pal = N[C@@H](Cc1ccncc1)C(=O)O; Cha = N[C@@H](CC1CCCCC1)C(=O)O; Cit = NC(=O)NCCC[C@H](N)C(=O)O; Carboxymethyl = O=C(O)C*; NMeA = CN[C@@H](C)C(=O)O; Dab = NCC[C@H](N)C(=O)O

T1 sequence (Q15116 25-288): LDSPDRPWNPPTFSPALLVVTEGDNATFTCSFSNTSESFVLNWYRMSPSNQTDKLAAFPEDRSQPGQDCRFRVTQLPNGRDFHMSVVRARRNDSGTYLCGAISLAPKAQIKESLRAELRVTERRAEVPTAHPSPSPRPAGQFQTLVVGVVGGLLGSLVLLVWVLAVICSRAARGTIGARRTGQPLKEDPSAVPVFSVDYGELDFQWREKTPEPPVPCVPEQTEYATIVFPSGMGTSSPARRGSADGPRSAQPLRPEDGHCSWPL

The test concerns the target T1, PE-labeled human PD-L1-Ig binding to Jurkat cell line over-expressing human PD-1 (Jurkat-PD-1) (Homo sapiens, UniProt Q15116).
T1 construct: expressed in transfected cells; host or cells: Jurkat
Nature of the test: Jurkat-PD-1 Cell Binding High-Content Screening Assay (CBA): Method 1. To be noted: Jurkat-hPD-1 cells, PE-labeled PD-L1-Ig 20 nM final; read-out: Jurkat HPDL1 PD1 IC50 (uM) (Method 1).
Consider `CC(C)C[C@@H]1NC(=O)[C@H](CCCNC(=N)N)NC(=O)[C@@H](CC(C)C)NC(=O)[C@H](C)N(C)C(=O)[C@H](CCC(=O)O)NC(=O)[C@H](Cc2ccc(-c3ccccc3)cc2)NC(=O)[C@H](C(C)C)NC(=O)[C@H](Cc2c[nH]c3ccccc23)NC(=O)[C@H](CC(=O)O)NC(=O)[C@H](Cc2ccc(O)cc2)NC(=O)[C@H](Cc2ccccc2)NC(=O)CSC[C@@H](C(=O)N[C@@H](CCC(=O)O)C(N)=O)NC(=O)[C@H]([C@@H](C)O)NC(=O)[C@H](C(C)C)NC1=O` [Compound 1135] ({CH2CO}-FYDWV[Bip]E[NMeA][dL]RLVTCE-NH2; thioether N-14), for which the IC50 stood at 0.14 µM.

Take `CC(C)C[C@@H]1NC(=O)[C@H](CCN)NC(=O)[C@@H](CC(C)C)NC(=O)[C@H](C)N(C)C(=O)[C@H](CCCNC(N)=O)NC(=O)[C@H](Cc2ccc(-c3ccccc3)cc2)NC(=O)[C@H](C(C)C)NC(=O)[C@H](Cc2c[nH]c3ccccc23)NC(=O)[C@H](CC(=O)O)NC(=O)[C@H](Cc2ccc(C(=O)O)cc2)NC(=O)[C@H](Cc2ccc(OCC(=O)O)cc2)NC(=O)CSC[C@@H](C(=O)N[C@@H](C)C(N)=O)NC(=O)[C@H]([C@@H](C)O)NC(=O)[C@H](C(C)C)NC1=O` [Compound 1573] ({CH2CO}-Y(Carboxymethyl)[Phe(4-COOH)]DWV[Bip][Cit][NMeA][dL][Dab]LVTCA-NH2; thioether N-14): the IC50 came to 0.05 µM.

Turning to `CC(C)C[C@@H]1NC(=O)[C@H](CCN)NC(=O)[C@@H](CC(C)C)NC(=O)[C@H](C)N(C)C(=O)[C@H](CCCNC(=N)N)NC(=O)[C@H](Cc2ccc(-c3ccccc3)cc2)NC(=O)[C@H](C(C)C)NC(=O)[C@H](Cc2c[nH]c3ccccc23)NC(=O)[C@H](CC(=O)O)NC(=O)[C@H](Cc2ccncc2)NC(=O)[C@H](CC(N)=O)NC(=O)CSC[C@@H](C(=O)N[C@@H](C)C(N)=O)NC(=O)[C@H]([C@@H](C)O)NC(=O)[C@H](C(C)C)NC1=O` [Compound 1146] ({CH2CO}-N[4Pal]DWV[Bip]R[NMeA][dL][Dab]LVTCA-NH2; thioether N-14), the IC50 was 0.06 µM.

Take `CC(C)C[C@@H]1NC(=O)[C@H](Cc2c[nH]c3ccccc23)NC(=O)[C@H](CC(=O)O)NC(=O)[C@H](Cc2ccc(O)cc2)NC(=O)[C@H](Cc2ccccc2)NC(=O)CSC[C@@H](C(=O)N[C@@H](C)C(N)=O)NC(=O)[C@H](CO)NC(=O)[C@H](C(C)C)NC(=O)[C@H](CC(C)C)NC(=O)[C@H](CCCNC(=N)N)NC(=O)[C@@H](C)NC(=O)[C@H](C)N(C)C(=O)[C@H](CCCNC(=N)N)NC(=O)[C@H](Cc2ccc(-c3ccccc3)cc2)NC1=O` [Compound 1782] ({CH2CO}-FYDWL[Bip]R[NMeA][dA]RLVSCA-NH2; thioether N-14): the half-maximal inhibitory concentration (IC50) is 0.08 µM.

For the compound `COc1cccc(C[C@@H]2NC(=O)[C@H](CC(=O)O)NC(=O)[C@H](Cc3ccc(O)cc3)NC(=O)[C@H](CC(N)=O)NC(=O)CSC[C@@H](C(=O)N[C@@H](C)C(N)=O)NC(=O)[C@H]([C@@H](C)O)NC(=O)[C@H](C(C)C)NC(=O)[C@H](CC(C)C)NC(=O)[C@H](CCCNC(N)=O)NC(=O)[C@@H](CC(C)C)NC(=O)[C@H](C)N(C)C(=O)[C@H](CCCNC(=N)N)NC(=O)[C@H](Cc3ccc(-c4ccccc4)cc3)NC(=O)[C@H](C(C)C)NC2=O)c1` [Compound 1191] ({CH2CO}-NYD[Phe(3-OMe)]V[Bip]R[NMeA][dL][Cit]LVTCA-NH2; thioether N-14), the IC50 was determined as 0.07 µM.

`CC(C)C[C@@H]1NC(=O)[C@H](CCCNC(=N)N)NC(=O)[C@@H](CC(C)C)NC(=O)[C@H](C)N(C)C(=O)[C@H](CCCNC(=N)N)NC(=O)[C@H](Cc2ccc(-c3ccccc3)cc2)NC(=O)[C@H](C(C)C)NC(=O)[C@H](Cc2c[nH]c3ccccc23)NC(=O)[C@H](CC(=O)O)NC(=O)[C@H](Cc2ccc(O)cc2)NC(=O)[C@H](CC(N)=O)NC(=O)CSC[C@@H](C(=O)NCC(N)=O)NC(=O)[C@H](CO)NC(=O)[C@H](C(C)C)NC1=O` [Compound 1253] ({CH2CO}-NYDWV[Bip]R[NMeA][dL]RLVSCG-NH2; thioether N-14): the IC50 was determined as 0.03 µM.

On to `CC(C)C[C@@H]1NC(=O)[C@H](CCN)NC(=O)[C@@H](CC(C)C)NC(=O)[C@H](C)N(C)C(=O)[C@H](CCCNC(N)=O)NC(=O)[C@H](Cc2ccc(-c3ccccc3)cc2)NC(=O)[C@H](C(C)C)NC(=O)[C@H](Cc2c[nH]c3ccccc23)NC(=O)[C@H](CC(=O)O)NC(=O)[C@H](Cc2ccc(C(=O)O)cc2)NC(=O)[C@H](CC(N)=O)NC(=O)CSC[C@@H](C(=O)N[C@@H](C)C(N)=O)NC(=O)[C@H]([C@@H](C)O)NC(=O)[C@H](C(C)C)NC1=O` [Compound 1317] ({CH2CO}-N[Phe(4-COOH)]DWV[Bip][Cit][NMeA][dL][Dab]LVTCA-NH2; thioether N-14), for which the IC50 came out at 0.04 µM.

Regarding `CC(C)C[C@@H]1NC(=O)[C@H](CCCNC(=N)N)NC(=O)[C@@H](CC(C)C)NC(=O)[C@H](C)N(C)C(=O)[C@H](CCCNC(=N)N)NC(=O)[C@H](Cc2ccc(-c3ccccc3)cc2)NC(=O)[C@H](C(C)C)NC(=O)[C@H](Cc2cccc(Cl)c2)NC(=O)[C@H](CC(=O)O)NC(=O)[C@H](Cc2ccc(O)cc2)NC(=O)[C@H](CC(N)=O)NC(=O)CSC[C@@H](C(=O)N[C@@H](C)C(N)=O)NC(=O)[C@H]([C@@H](C)O)NC(=O)[C@H](C(C)C)NC1=O` [Compound 1127] ({CH2CO}-NYD[Phe(3-Cl)]V[Bip]R[NMeA][dL]RLVTCA-NH2; thioether N-14), the 50% inhibitory concentration (IC50) worked out at 0.09 µM.

Consider `Cc1cccc(C[C@@H]2NC(=O)[C@H](CC(=O)O)NC(=O)[C@H](Cc3ccc(O)cc3)NC(=O)[C@H](CC(N)=O)NC(=O)CSC[C@@H](C(=O)N[C@H](C)C(N)=O)NC(=O)[C@H](CCC(=O)O)NC(=O)[C@H](C(C)(C)O)NC(=O)[C@H](CC3CCCCC3)NC(=O)[C@H](CCN)NC(=O)[C@@H](CC(C)C)NC(=O)[C@H](C)N(C)C(=O)[C@H](CCCNC(N)=O)NC(=O)[C@H](Cc3ccc(-c4ccccc4)cc3)NC(=O)[C@H](C(C)(C)O)NC2=O)c1` [Compound 1712] ({CH2CO}-NYD[Phe(3-Me)][Val(3-OH)][Bip][Cit][NMeA][dL][Dab][Cha][Val(3-OH)]EC[dA]-NH2; thioether N-14), for which the IC50 was determined as 0.24 µM.

`Cc1cccc(C[C@@H]2NC(=O)[C@H](CC(=O)O)NC(=O)[C@H](Cc3ccc(O)cc3)NC(=O)[C@H](CC(N)=O)NC(=O)CSC[C@@H](C(=O)N[C@H](C)C(N)=O)NC(=O)[C@H]([C@@H](C)O)NC(=O)[C@H](C(C)(C)O)NC(=O)[C@H](CC3CCCCC3)NC(=O)[C@H](CCN)NC(=O)[C@@H](CC(C)C)NC(=O)[C@H](C)N(C)C(=O)[C@H](CCCNC(N)=O)NC(=O)[C@H](Cc3ccc(-c4ccccc4)cc3)NC(=O)[C@H](C(C)(C)O)NC2=O)c1` [Compound 1706] ({CH2CO}-NYD[Phe(3-Me)][Val(3-OH)][Bip][Cit][NMeA][dL][Dab][Cha][Val(3-OH)]TC[dA]-NH2; thioether N-14): the half-inhibitory concentration (IC50) is 0.12 µM.

Regarding `CC(C)C[C@@H]1NC(=O)[C@H](CCCCN)NC(=O)[C@@H](CC(C)C)NC(=O)[C@H](C)N(C)C(=O)[C@H](C(C)C)NC(=O)[C@H](Cc2ccc(-c3ccccc3)cc2)NC(=O)[C@H](C(C)C)NC(=O)[C@H](Cc2c[nH]c3ccccc23)NC(=O)[C@H](CC(=O)O)NC(=O)[C@H](Cc2ccc(O)cc2)NC(=O)[C@H](CC(N)=O)NC(=O)CSC[C@@H](C(=O)N[C@@H](C)C(N)=O)NC(=O)[C@H]([C@@H](C)O)NC(=O)[C@H](C(C)C)NC1=O` [Compound 1299] ({CH2CO}-NYDWV[Bip]V[NMeA][dL]KLVTCA-NH2; thioether N-14), the IC50 was 0.02 µM.
